# Laboratory results as given in patent publication US12485134B2, “Use of nicotinamide riboside, nicotinic acid riboside, reduced nicotinyl riboside compounds, and nicotinyl riboside compound derivatives in formulations” (ChromaDex Inc., priority 2019, dated 2025).
# Assays:
# [1] = system: milk concentrate proteins; assay: WaterLOGSY NMR binding of NR-Cl; details: pH 7.0
# Description: WaterLOGSY is a sensitive ligand-observed NMR experiment designed for the screening of protein ligands from a mixture of potential binders. […] The experiment relies on fast dissociation of bound ligands to carry into the free state magnetisation originating from irradiated water that has been transmitted via the protein complex.
# NMR samples for WaterLOGSY were prepared as follows. Ligand-detect WaterLOGSY experiments were carried at 600 MHz with 5-mm cryoprobe and using 5-mm NMR tubes. Each NMR sample for WaterLOGSY contained ˜0.05 mg (˜0.35 mM), using unlabeled ligand NR-Cl (“NR”), in a NMR buffer containing ˜0.5 mL 90% H2O/10% ^2H2O at pH 7.0 with or without the milk and soy protein mix (compared to the WaterLOGSY of NR as a negative control). Protein was added as a powder with a minimal 15 to 50 μM concentration. Typically, the final NMR sample of protein-compound mixtures had >20-fold higher compound concentration of ligand compared to that of the protein. Denatured samples were prepared by simply heating (80° C. for 15-20 mins) the aqueous (5-10% ^2H2O) protein mixture (in absence of NR).
# The NR only WaterLOGSY spectrum (FIG. 23) was the negative control to screen for any potential binding of NR-Cl to milk concentrate and soy isolate proteins as shown herein and discussed below.
# [2] = system: hydrolyzed whey protein isolate; assay: NR-Cl binding to hydrolyzed whey protein isolate (10 kDa cutoff filtration, unbound NR-Cl in filtrate by HPLC)
# Description: (§1) A. Solutions of hydrolyzed whey protein isolate (>90% protein, 2-7% degree of hydrolysis) were prepared at varying concentrations and filtered through 0.2 μm sterile filters. An aliquot of sterile nicotinamide riboside chloride (“NR-Cl,” a salt of NR, I) in water solution was spiked into the sterile whey solutions, targeting a final NR-Cl concentration of 1 mmol per liter (0.3 mg/mL). The solutions containing the mixture of hydrolyzed whey and NR-Cl were filtered through 10 kDa molecular weight cutoff centrifuge filters to remove the whey proteins (14-80 kDa) and any NR-Cl that was bound to the proteins. Any NR-Cl that was not bound to the whey proteins was recovered in the filtrate and quantitated by HPLC.
# The solutions of hydrolyzed whey protein isolate and NR-Cl were stored at ambient and refrigerated conditions and analyzed at various timepoints for NR-Cl protein binding and stability.
# (§2) A study measuring the stability of NR-Cl in hydrolyzed and non-hydrolyzed whey protein was conducted with 2 mmol/L NR-Cl (0.6 mg/mL) and 20 mg/mL protein (33.3:1 wt:wt protein:NR-Cl). […] (See Table 5).
# Transferrin = Transferrin (Bos taurus, UniProt Q29443); assay: NR-Cl binding to individual whey proteins (cutoff filter method); details: 1 mmol/L each of protein and NR-Cl
# Description: as §1
# (§3) The solutions were prepared with 1 mmol/L each of protein and NR-Cl. NR-Cl binding to one or more of these individual proteins could be responsible for the enhanced stability of NR-Cl seen in hydrolyzed whey protein isolate.
# Beta-lactoglobulin = target: T1, Beta-lactoglobulin (Bos taurus, UniProt P02754); assay: as above; details: 1 mmol/L each of protein and NR-Cl
# T1 sequence (P02754 17-178): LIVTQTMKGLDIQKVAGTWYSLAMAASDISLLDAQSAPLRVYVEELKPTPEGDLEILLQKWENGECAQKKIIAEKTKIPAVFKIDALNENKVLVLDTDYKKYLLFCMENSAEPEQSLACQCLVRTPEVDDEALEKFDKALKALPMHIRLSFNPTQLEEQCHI
# Description: as §1, §3
# Lactoferrin = Lactoferrin (Bos taurus, UniProt P24627); assay: as above; details: 1 mmol/L each of protein and NR-Cl
# Description: as §1, §3
# Alpha-lactalbumin = target: T2, Alpha-lactalbumin (Bos taurus, UniProt P00711); assay: as above; details: 1 mmol/L each of protein and NR-Cl
# T2 sequence (P00711 20-142): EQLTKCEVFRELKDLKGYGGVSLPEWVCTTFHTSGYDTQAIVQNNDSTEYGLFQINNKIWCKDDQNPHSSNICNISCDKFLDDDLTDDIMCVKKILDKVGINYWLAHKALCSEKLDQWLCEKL
# Description: as §1, §3
# Albumin = Albumin (Bos taurus, UniProt P02769); assay: as above; details: 1 mmol/L each of protein and NR-Cl
# Description: as §1, §3
# [3] = system: non-hydrolyzed whey protein; assay: NR-Cl binding to non-hydrolyzed whey protein isolate (cutoff filter method); details: Non-Hydrolyzed Whey Protein Isolate 20 mg/mL, 2 mmol/L NR-Cl (33.3:1 wt:wt)
# Description: as §1, §2
# Transferrin, sequence (Q29443 20-704): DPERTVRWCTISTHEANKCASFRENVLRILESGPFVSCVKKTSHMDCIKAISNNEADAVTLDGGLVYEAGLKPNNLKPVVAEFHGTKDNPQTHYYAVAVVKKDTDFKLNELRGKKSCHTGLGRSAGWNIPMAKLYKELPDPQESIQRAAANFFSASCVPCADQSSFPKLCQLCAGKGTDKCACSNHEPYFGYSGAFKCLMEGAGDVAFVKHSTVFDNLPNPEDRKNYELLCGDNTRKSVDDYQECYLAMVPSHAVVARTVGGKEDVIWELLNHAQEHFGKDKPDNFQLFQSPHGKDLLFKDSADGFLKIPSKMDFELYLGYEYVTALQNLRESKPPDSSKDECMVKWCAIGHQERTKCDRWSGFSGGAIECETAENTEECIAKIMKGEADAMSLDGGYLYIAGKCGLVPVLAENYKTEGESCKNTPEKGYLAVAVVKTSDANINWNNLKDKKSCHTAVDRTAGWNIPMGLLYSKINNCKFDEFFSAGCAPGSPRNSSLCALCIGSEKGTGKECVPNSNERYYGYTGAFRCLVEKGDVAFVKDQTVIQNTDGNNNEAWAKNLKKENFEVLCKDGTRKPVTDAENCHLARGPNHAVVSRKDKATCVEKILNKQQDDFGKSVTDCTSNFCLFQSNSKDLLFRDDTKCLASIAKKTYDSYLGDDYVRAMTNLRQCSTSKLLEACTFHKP
# Lactoferrin, sequence (P24627 20-708): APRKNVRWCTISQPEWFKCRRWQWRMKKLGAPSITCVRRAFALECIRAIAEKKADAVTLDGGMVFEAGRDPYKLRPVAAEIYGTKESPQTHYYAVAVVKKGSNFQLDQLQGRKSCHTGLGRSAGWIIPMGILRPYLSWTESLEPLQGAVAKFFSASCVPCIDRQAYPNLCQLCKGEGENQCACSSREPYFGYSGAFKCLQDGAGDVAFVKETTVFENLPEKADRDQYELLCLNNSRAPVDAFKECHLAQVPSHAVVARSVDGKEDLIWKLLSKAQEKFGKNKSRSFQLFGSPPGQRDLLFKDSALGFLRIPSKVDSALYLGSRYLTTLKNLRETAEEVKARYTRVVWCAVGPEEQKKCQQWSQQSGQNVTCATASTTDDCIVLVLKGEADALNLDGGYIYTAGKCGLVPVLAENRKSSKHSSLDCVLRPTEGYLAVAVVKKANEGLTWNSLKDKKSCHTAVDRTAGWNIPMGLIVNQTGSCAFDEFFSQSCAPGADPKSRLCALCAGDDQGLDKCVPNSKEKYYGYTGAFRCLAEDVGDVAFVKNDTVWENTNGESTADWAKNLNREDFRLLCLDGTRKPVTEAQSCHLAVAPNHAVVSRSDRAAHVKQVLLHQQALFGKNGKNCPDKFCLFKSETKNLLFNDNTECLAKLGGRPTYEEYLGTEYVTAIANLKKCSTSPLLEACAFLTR
# Albumin, sequence (P02769 25-607): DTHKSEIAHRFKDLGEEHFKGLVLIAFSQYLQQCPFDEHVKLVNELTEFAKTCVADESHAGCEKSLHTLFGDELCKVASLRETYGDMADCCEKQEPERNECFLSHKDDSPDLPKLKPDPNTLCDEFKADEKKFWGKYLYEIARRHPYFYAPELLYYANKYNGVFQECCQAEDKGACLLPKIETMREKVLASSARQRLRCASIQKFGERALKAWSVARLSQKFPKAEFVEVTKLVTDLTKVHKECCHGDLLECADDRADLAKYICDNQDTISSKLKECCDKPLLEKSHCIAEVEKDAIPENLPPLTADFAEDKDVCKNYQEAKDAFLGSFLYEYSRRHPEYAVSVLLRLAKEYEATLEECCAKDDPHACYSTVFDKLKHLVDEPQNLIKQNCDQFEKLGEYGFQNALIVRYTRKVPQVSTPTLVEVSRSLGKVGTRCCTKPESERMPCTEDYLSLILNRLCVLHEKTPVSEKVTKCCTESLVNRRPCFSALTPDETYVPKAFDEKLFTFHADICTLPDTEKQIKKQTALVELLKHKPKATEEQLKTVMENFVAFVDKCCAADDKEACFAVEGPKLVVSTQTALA
smiles,measurement,setting,value
"NC(=O)c1ccc[n+]([C@@H]2O[C@H](CO)[C@@H](O)[C@H]2O)c1.[Cl-] [NR-Cl, nicotinamide riboside chloride]",WaterLOGSY binding,[1]; denatured milk concentrate (80° C. for 15-20 mins),decreased binding
same,WaterLOGSY binding,[1]; milk concentrate,evidence of positive binding
same,fraction of NR-Cl bound to whey protein over the course of the experiments,"[2]; 7 days ambient, 30 days refrigerated",remain stable
same,% NR-Cl Bound to Protein,"[2]; Hydrolyzed Whey Protein Isolate 20 mg/mL, 2 mmol/L NR-Cl (33.3:1 wt:wt), 0 days refrigerated",55%
same,% NR-Cl Bound to Protein,"[2]; Hydrolyzed Whey Protein Isolate 20 mg/mL, 2 mmol/L NR-Cl (33.3:1 wt:wt), 1 day refrigerated",56%
same,% NR-Cl Bound to Protein,"[2]; hydrolyzed whey protein isolate:NR-Cl 18.3:1 (wt:wt), 1 mmol/L NR-Cl",41%
same,% NR-Cl Bound to Protein,"[2]; hydrolyzed whey protein isolate:NR-Cl 37:1 (wt:wt), 1 mmol/L NR-Cl",47%
same,% NR-Cl Bound to Protein,"[2]; hydrolyzed whey protein isolate:NR-Cl 73:1 (wt:wt), 1 mmol/L NR-Cl",60%
same,% NR-Cl Bound to Protein,"[2]; hydrolyzed whey protein isolate:NR-Cl 147:1 (wt:wt), 1 mmol/L NR-Cl",65%
same,% NR-Cl Bound to Protein,"[2]; hydrolyzed whey protein isolate:NR-Cl 293:1 (wt:wt), 1 mmol/L NR-Cl",67%
same,% NR-Cl Bound to Protein,"[2]; hydrolyzed whey:NR-Cl 18.3:1 (wt:wt), 0 days ambient",41%
same,% NR-Cl Bound to Protein,"[2]; hydrolyzed whey:NR-Cl 18.3:1 (wt:wt), 0 days refrigerated",41%
same,% NR-Cl Bound to Protein,"[2]; hydrolyzed whey:NR-Cl 18.3:1 (wt:wt), 3 days ambient",44%
same,% NR-Cl Bound to Protein,"[2]; hydrolyzed whey:NR-Cl 18.3:1 (wt:wt), 5 days ambient",45%
same,% NR-Cl Bound to Protein,"[2]; hydrolyzed whey:NR-Cl 18.3:1 (wt:wt), 7 days ambient",43%
same,% NR-Cl Bound to Protein,"[2]; hydrolyzed whey:NR-Cl 18.3:1 (wt:wt), 30 days refrigerated",24%
same,% NR-Cl Bound to Protein,"[2]; hydrolyzed whey:NR-Cl 37:1 (wt:wt), 0 days ambient",47%
same,% NR-Cl Bound to Protein,"[2]; hydrolyzed whey:NR-Cl 37:1 (wt:wt), 0 days refrigerated",47%
same,% NR-Cl Bound to Protein,"[2]; hydrolyzed whey:NR-Cl 37:1 (wt:wt), 3 days ambient",55%
same,% NR-Cl Bound to Protein,"[2]; hydrolyzed whey:NR-Cl 37:1 (wt:wt), 5 days ambient",54%
same,% NR-Cl Bound to Protein,"[2]; hydrolyzed whey:NR-Cl 37:1 (wt:wt), 7 days ambient",54%
same,% NR-Cl Bound to Protein,"[2]; hydrolyzed whey:NR-Cl 37:1 (wt:wt), 30 days refrigerated",45%
same,% NR-Cl Bound to Protein,"[2]; hydrolyzed whey:NR-Cl 73:1 (wt:wt), 0 days ambient",60%
same,% NR-Cl Bound to Protein,"[2]; hydrolyzed whey:NR-Cl 73:1 (wt:wt), 0 days refrigerated",60%
same,% NR-Cl Bound to Protein,"[2]; hydrolyzed whey:NR-Cl 73:1 (wt:wt), 3 days ambient",66%
same,% NR-Cl Bound to Protein,"[2]; hydrolyzed whey:NR-Cl 73:1 (wt:wt), 5 days ambient",65%
same,% NR-Cl Bound to Protein,"[2]; hydrolyzed whey:NR-Cl 73:1 (wt:wt), 7 days ambient",65%
same,% NR-Cl Bound to Protein,"[2]; hydrolyzed whey:NR-Cl 73:1 (wt:wt), 30 days refrigerated",57%
same,% NR-Cl Bound to Protein,"[2]; hydrolyzed whey:NR-Cl 147:1 (wt:wt), 0 days ambient",65%
same,% NR-Cl Bound to Protein,"[2]; hydrolyzed whey:NR-Cl 147:1 (wt:wt), 3 days ambient",71%
same,% NR-Cl Bound to Protein,"[2]; hydrolyzed whey:NR-Cl 147:1 (wt:wt), 5 days ambient",72%
same,% NR-Cl Bound to Protein,"[2]; hydrolyzed whey:NR-Cl 147:1 (wt:wt), 7 days ambient",69%
same,% NR-Cl Bound to Protein,"[2]; hydrolyzed whey:NR-Cl 293:1 (wt:wt), 0 days ambient",67%
same,% NR-Cl Bound to Protein,"[2]; hydrolyzed whey:NR-Cl 293:1 (wt:wt), 3 days ambient",62%
same,% NR-Cl Bound to Protein,"[2]; hydrolyzed whey:NR-Cl 293:1 (wt:wt), 7 days ambient",72%
same,% NR-Cl Bound to Protein,Transferrin,15%
same,% NR-Cl Bound to Protein,Beta-lactoglobulin,66%
same,% NR-Cl Bound to Protein,Lactoferrin,28%
same,% NR-Cl Bound to Protein,Alpha-lactalbumin,62%
same,% NR-Cl Bound to Protein,Albumin,47%
same,% NR-Cl Bound to Protein,[3]; 0 days refrigerated,49%
same,% NR-Cl Bound to Protein,[3]; 1 day refrigerated,54%
